Laboratory results: patent US10946053B2, “Composition containing mixed extract of mulberry and Poria cocos bark for preventing, improving or treating neurodegenerative disorders” (NeuroBo Pharmaceuticals, Inc., priority 2014, dated 2021)

Tests used:
beta-nerve growth factor = assay: NGF level measurement in nerve cell line (ELISA); assay type: cell-based, human; details: extracts 10 μg/ml, Donepezil 10 μM
Procedure: NGF levels were measured in order to determine the mechanism of cognitive improvement of the herbal mixed extracts. […] NGF levels were measured using a beta-nerve growth factor human enzyme-linked immunosorbent assay (ELISA) KIT purchased from Abcam.

[1] = tested on: Scopolamine Induced Memory Impairment Model; assay: Novel object recognition (NOR) task, scopolamine model; assay type: in vivo, ICR mice; details: extracts 100 mg/kg, Donepezil 1 mg/kg, test session
Procedure: (§1) Six-week-old ICR mice were used for the experiment and each experimental group consisted of 8 animals.
(§2) Normal animals were injected with the same amount of physiological saline. Behavioral studies were performed after 30 minutes of scopolamine administration.
(§3) The lyophilized drug, comparative drug and control drug were suspended in 3% HPMC aqueous solution, and all the drugs were prepared on the day of the experiment.
(§4) Inside a black box of 45 cm width, 45 cm length, 50 cm height, two plastic objects of the same size but different shapes were placed. The experimental animals were allowed to move freely for 8 minutes and the time spent on each object was measured (training session) 24 hours later, the experimental animals were placed in a box with one familiar object and one new object in the training session and the time spent in each object was measured (test session). The recorded values were calculated using the following equation (2), which is expressed as a recognition result of a new object. Recognition rate of new objects (%)=Time spent on new objects/(Time spent on new objects+Time spent on experienced objects)×100 [Equation 2]

[2] = tested on: Scopolamine Induced Memory Impairment Model; assay: Passive avoidance task, scopolamine induced memory impairment model; assay type: in vivo, ICR mice; details: scopolamine 1 mg/kg i.p., oral, extracts 100 mg/kg, Donepezil 1 mg/kg
Procedure: as §1, §2, §3
Passive avoidance experiments were performed in two independently separated bright and dark square boxes. Bright areas (20×20×20 cm) were illuminated with 50 W incandescent lamps. Light and dark areas (20×20×20 cm) were spaced 1 cm apart and 2 mm stainless steel rods were installed.
In the habituation phase, the two sections were separated by a guillotine door (5×5 cm), and the guillotine door was opened after 30 seconds after placing the experimental animals in the light section. The animals were allowed to freely navigate. When they reached the dark area, the guillotine door was closed and the animals were taken out after 3 seconds.
(§5) Acquisition trials were conducted 24 hours later. […] The time that the animals entered the dark zone was measured.
(§6) After performing the acquisition trials and giving a 24-hour rest period, the experimental animals were placed in a bright area for measuring the retention trial and the time until entering the dark area was measured. […]

human Tau [pS199] = assay: Phosphorylated tau in neuronal cell line (ELISA), Aβ42 treated; assay type: cell-based; details: Donepezil 10 μM
Procedure: Phosphorylated tau levels were measured in order to confirm the inhibitory effect of crude herbal extracts on tau hyper-phosphorylation. […] The phosphorylated tau was measured using human Tau [pS199] enzyme-linked immunosorbent assay (ELISA) KIT purchased from Invitrogen.

Aβ Infusion Model (Aβ42) [3] = assay: Novel object recognition (NOR) task, Aβ42 administration model; assay type: in vivo, ICR mice; details: extracts 100 mg/kg, Donepezil 1 mg/kg
Procedure: as §3, §4

[4] = tested on: Scopolamine Induced Memory Impairment Model; assay: Y-maze test, scopolamine model; assay type: in vivo, ICR mice; details: extracts 100 mg/kg, Donepezil 1 mg/kg
Procedure: as §1, §2, §3
(§7) The Y-maze experiment was conducted to investigate the effect of short-term memory. The animals were placed on one arm of the Y-maze and allowed to move freely for 8 minutes. Spontaneous alternation and total number of entries were measured. When the animals were consecutively entered into three arms, they were defined as alternation entry, and the ratio was calculated by the following equation 1. Spontaneous alternation ratio (%)=[(number of changes)/(total number of arm entry−2)]×100 [Equation 1]

[5] = tested on: NeuN, a neural cell marker; assay: Immunohistochemical staining with NeuN in hippocampus, Aβ infusion model (FIG. 1); assay type: in vivo, ICR mice
Procedure: (§8) Six-week-old ICR mice were used in the experiment. The animals were anesthetized, fixed in a stereotaxic apparatus (Stoelting) and injected with 3 μl of vehicle (artificial CSF) or Aβ42 for 6 minutes using a Hamilton micro syringe (fitted with a 26-gauge needle).
(§9) Animals treated with Aβ42 were randomly divided into experimental groups. From 2 days after administration of Aβ42, the experimental drug and the positive control drug were administered once a day for 11 days.
For immunohistochemical staining, the Aβ infusion animal described in Experimental Example 1-1 was perfused with 1×PBS (phosphate buffered saline), fixed with 4% paraformaldehyde, and brain was extracted. This was fixed in the same solution for one day and stored in a 30% sucrose solution and the solution was changed every two days until frozen at […] After that, brain tissue was frozen sufficiently at −20° C. by dropping OCT (optimal cutting temperature) compound in a cryostat, and then made into a 30 μm-thick section, and stored at 4° C. in a preservative solution. Immunohistochemical staining was performed with the hippocampus portion. […]

Aβ Infusion Model (Aβ42) [6] = assay: Y-maze test, Aβ42 administration model; assay type: in vivo, ICR mice; details: extracts 100 mg/kg, Donepezil 1 mg/kg
Procedure: as §8, §9, §3, §7

Aβ Infusion Model (Aβ42) [7] = assay: Passive avoidance task, Aβ42 administration model; assay type: in vivo, ICR mice; details: Aβ42 injected, once a day for 11 days, extracts 100 mg/kg, Donepezil 1 mg/kg
Procedure: as §8, §9, §3
Passive avoidance experiments were performed in two independently separated bright and dark square boxes. Bright areas (20×20×20 cm) were illuminated with 50 W incandescent lamps. Light and dark areas (20×20×20 cm) were spaced 1 cm apart and 2 mm stainless steel rods were installed. […]
as §5, §6

## COc1cc2c(cc1OC)C(=O)C(CC1CCN(Cc3ccccc3)CC1)C2 (stereo not shown) [Donepezil]
beta-nerve growth factor; SH-SY5Y cells
  effect of promoting NGF production in nerve cell line, in words: did not show the effect of promoting NGF production
beta-nerve growth factor; differentiated SH-SY5Y cells
  NGF (pg/g protein): 421 pg/g protein
[1]
  Familiar object recognition time: 7.9
  New object recognition time: 12.9
  Total object recognition time: 20.8
[2]; retention trial 24 h after acquisition
  Retention time: 243.5
[2]; time to enter dark area, acquisition trial
  Acquisition time: 77.4
Human Tau [pS199]; SH-SY5Y cells, Aβ42
  inhibitory effect on tau phosphorylation, in words: did not show any inhibitory effect
Human Tau [pS199]; differentiated SH-SY5Y cells, Aβ42 48 hours, extracts 10 μg/ml
  Phosphorus tau pg/g protein: 1699 pg/g protein
Aβ Infusion Model (Aβ42) [3]
  Total object recognition on time: 26.8
[4]
  spontaneous alternation (%): 67.2%
[4]; 8 minutes
  Total number of entries: 64
  True enter: 43
[5]
  NeuN expression / neuroprotective effect (FIG. 1), in words: failed to show neuroprotective effects
Aβ Infusion Model (Aβ42) [6]
  spontaneous alternation (%): 70.5%
Aβ Infusion Model (Aβ42) [6]; 8 minutes
  Total number of entries: 61
  True enter: 43
Aβ Infusion Model (Aβ42) [7]; acquisition trial
  Acquisition time: 78.4
Aβ Infusion Model (Aβ42) [7]; retention trial
  Retention time: 244.2
